Measurements published in article PMC10518255, “A first-in-class pan-lysyl oxidase inhibitor impairs stromal remodeling and enhances gemcitabine response and survival in pancreatic cancer” (Nature Cancer, 2023).
Several values for one entry are separate records, joined by “and”; a condition that tells them apart may be missing. Equal values may be shown once.

How the values were obtained:
[1] = Rat pharmacokinetics, single dose orally (10 mg/kg) or intravenously (5 mg/kg)
Recombinant LOXL-4 = target: T1, Recombinant LOXL-4 (Homo sapiens, UniProt Q96JB6); test: Lysyl oxidase enzymatic activity, fluorescence-based assay, IC50; format: biochemical
T1 sequence (Q96JB6 25-756): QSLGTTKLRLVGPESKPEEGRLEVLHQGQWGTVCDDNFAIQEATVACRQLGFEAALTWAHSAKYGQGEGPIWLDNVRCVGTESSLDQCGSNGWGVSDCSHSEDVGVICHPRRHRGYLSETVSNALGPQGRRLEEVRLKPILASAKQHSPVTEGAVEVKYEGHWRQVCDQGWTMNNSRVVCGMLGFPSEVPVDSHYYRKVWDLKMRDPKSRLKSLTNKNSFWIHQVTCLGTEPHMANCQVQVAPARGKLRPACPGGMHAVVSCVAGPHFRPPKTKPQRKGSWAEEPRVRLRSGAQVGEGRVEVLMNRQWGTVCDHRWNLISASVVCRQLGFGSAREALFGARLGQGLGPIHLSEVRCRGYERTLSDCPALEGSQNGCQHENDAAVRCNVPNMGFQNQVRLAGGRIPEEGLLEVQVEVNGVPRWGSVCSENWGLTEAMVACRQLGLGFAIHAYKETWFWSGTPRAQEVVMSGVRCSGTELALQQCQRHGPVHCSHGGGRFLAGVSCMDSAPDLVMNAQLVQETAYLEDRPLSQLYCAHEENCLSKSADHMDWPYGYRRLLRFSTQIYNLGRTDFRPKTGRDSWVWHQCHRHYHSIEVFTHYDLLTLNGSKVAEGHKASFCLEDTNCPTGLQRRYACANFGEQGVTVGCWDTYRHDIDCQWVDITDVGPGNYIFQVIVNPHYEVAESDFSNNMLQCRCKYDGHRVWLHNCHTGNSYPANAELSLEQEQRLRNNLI
From the text: Data are presented as mean ± s.d. […] Data presented as mean ± s.d. […] Source data TEXT PRINTED IN THE PICTURE: (b) PXS-5505: Recombinant DAO IC50 (nM): >30,000; Recombinant SSAO/VAP1 IC50 (nM): >30,000; Recombinant MAO-A IC50 (nM): >30,000; Recombinant MAO-B IC50 (nM): >30,000 | (f) PXS-5505: Fibroblast LOX IC50 (nM): 4,930; Recombinant LOXL-1 IC50 (nM): 1,590; Recombinant LOXL-2 IC50 (nM): 570; Recombinant LOXL-3 IC50 (nM): 1,800; Recombinant LOXL-4 IC50 (nM): 190
In characterizing PXS-5505, the half-maximum inhibitory concentration (IC50) values for each of the lysyl oxidase family members were determined by measuring enzymatic activity using a fluorescence-based assay.
Data presented as mean values +/− SD. f. […] Data presented as mean values +/− SD. […] Data presented as mean values +/− SD. […] Data presented as mean values +/− SD. Ordinary one-way ANOVA for multiple comparison test performed. Source data

Work on Cl.Cl.NC/C=C(\F)CS(=O)(=O)c1cccc2cccnc12.O [PXS-5505, (Z)-3-fluoro-4-(quinolin-8-ylsulfonyl)but-2-en-1-amine dihydrochloride monohydrate] yielded a Plasma concentration ([1]; 5 mg/kg iv, 0.03 hrs) of 10.145, a Plasma concentration ([1]; 5 mg/kg iv, 0.17 hrs) of 4.593 and a Plasma concentration ([1]; 5 mg/kg iv, 0.5 hrs) of 2.135. It also gave a Plasma concentration ([1]; 5 mg/kg iv, 1 hrs) of 0.7139, a Plasma concentration ([1]; 5 mg/kg iv, 2 hrs) of 0.1589 and a Plasma concentration ([1]; 5 mg/kg iv, 3 hrs) of 0.055. For the same compound, the Plasma concentration ([1]; 5 mg/kg iv, 5 hrs) was 0.008393, the Plasma concentration ([1]; 10 mg/kg oral, 0.25 hrs) was 2.305 and the Plasma concentration ([1]; 10 mg/kg oral, 0.5 hrs) was 3.551. It also gave a Plasma concentration ([1]; 10 mg/kg oral, 1 hrs) of 3.399, a Plasma concentration ([1]; 10 mg/kg oral, 2 hrs) of 0.9 and a Plasma concentration ([1]; 10 mg/kg oral, 3 hrs) of 0.198. For the same compound, the Plasma concentration ([1]; 10 mg/kg oral, 5 hrs) was 0.02554, the Plasma concentration ([1]; 10 mg/kg oral, 8 hrs) was 0.0075 and the AUC(0-t) ([1]; plasma, po, 10 mg/kg) was 1600 ng·h/mL. It also gave a Cmax ([1]; plasma, po, 10 mg/kg) of 1000 ng/mL, a Tmax ([1]; plasma, po, 10 mg/kg) of 48 min and a bioavailability ([1]; plasma, po, 10 mg/kg, Bioavailability (F)) of 75%. It also gave a half-life ([1]; plasma, po, 10 mg/kg, T1/2, rat) of 42 min, a bioavailability ([1]; plasma, po, 10 mg/kg, bioavailability, oral administration, for rodents) of over 75% and a half-life ([1]; plasma, po, 10 mg/kg, half-life, oral administration) of about 60 min. For the same compound, the IC50 (Recombinant LOXL-4) was 190 nM, the “LOXL4 activity, IC50 determination curve” value (Recombinant LOXL-4; log(Concentration) -4.52288, replicates, 30 µM) was -2.4007 and -2.8906 and -3.2101 and -2.6712 and the “LOXL4 activity, IC50 determination curve” value (Recombinant LOXL-4; log(Concentration) -5, replicates, 10 µM) was -1.4422 and -2.1664 and -2.1983 and -2.2521. The “LOXL4 activity, IC50 determination curve” value (Recombinant LOXL-4; log(Concentration) -5.47712, replicates, 3.333 µM) was 0.2192 and -0.9736 and -1.1972 and -0.2715, the “LOXL4 activity, IC50 determination curve” value (Recombinant LOXL-4; log(Concentration) -5.95424, replicates, 1.111 µM) was 5.544 and 5.363 and 4.947 and the “LOXL4 activity, IC50 determination curve” value (Recombinant LOXL-4; log(Concentration) -6.43136, replicates, 0.3704 µM) was 33.33 and 26.333 and 28.4205. For the same compound, the “LOXL4 activity, IC50 determination curve” value (Recombinant LOXL-4; log(Concentration) -6.90849, replicates, 0.1235 µM) was 72.8948 and 68.0171 and 53.7035 and 49.075, the “LOXL4 activity, IC50 determination curve” value (Recombinant LOXL-4; log(Concentration) -7.38561, replicates, 0.04115 µM) was 94.28 and 92.9061 and 89.562 and 72.7789 and the “LOXL4 activity, IC50 determination curve” value (Recombinant LOXL-4; log(Concentration) -7.86273, replicates, 0.01372 µM) was 99.5304 and 98.9021 and 84.3689. The “LOXL4 activity, IC50 determination curve” value (Recombinant LOXL-4; log(Concentration) -8.33985, replicates, 0.004572 µM) was 103.556 and 102.033 and 92.1549, the “LOXL4 activity, IC50 determination curve” value (Recombinant LOXL-4; log(Concentration) -8.81697, replicates, 0.001524 µM) was 95.8121 and the “LOXL4 activity, IC50 determination curve” value (Recombinant LOXL-4; log(Concentration) -9.29409, replicates, 0.000508 µM) was 96.0112. The activity at 1.111 µM (Recombinant LOXL-4; read-out: LOXL4 activity, IC50 determination curve, log(Concentration) -5.95424, replicates) was 6.34%, the activity at 0.3704 µM (Recombinant LOXL-4; read-out: LOXL4 activity, IC50 determination curve, log(Concentration) -6.43136, replicates) was 39.8% and the activity at 0.01372 µM (Recombinant LOXL-4; read-out: LOXL4 activity, IC50 determination curve, log(Concentration) -7.86273, replicates) was 101%. The activity at 0.004572 µM (Recombinant LOXL-4; read-out: LOXL4 activity, IC50 determination curve, log(Concentration) -8.33985, replicates) was 106%, the activity at 0.001524 µM (Recombinant LOXL-4; read-out: LOXL4 activity, IC50 determination curve, log(Concentration) -8.81697, replicates) was 104% and the activity at 0.000508 µM (Recombinant LOXL-4; read-out: LOXL4 activity, IC50 determination curve, log(Concentration) -9.29409, replicates) was 105%.
